Patent US20020198219A1, “2-pyridinamine compositions and related methods” (priority 2000, published 2002)

Test system: differentiated P19 neurons
Assay: Drug screening using differentiated P19 cell assay (neuroprotection against glutamate/glycine)
Format: cell-based, murine
Conditions: for % neuroprotection (cell survival relative to control): screened at 1 micromolar, percentage of control cells surviving after 24 hours; for IC50: dose response 0.005-3 μM, 3 mM glutamate + 1 mM glycine, >1 = no maximum within highest dose (3 μM)
Protocol: Commercially available chemical libraries (BioFocus PLC, UK) were screened using the methods described herein. The stock concentration of the compounds was about 400 μM in DMSO. The concentration of compounds used in the primary screen was 1 μM. […] Columns 4-11 received compounds at the following final concentrations (μM): 3, 1.2, 0.48, 0.192, 0.077, 0.031, 0.012 and 0.005. Each row contained a different compound for confirmation. Only rows B-G received compounds, and rows A and H remained untreated. Data are expressed as % neuroprotection=((compound-glutamate average)/(U0126-glutamate average)×100).
Only the 2-pyridinamines are the subject of this invention, although limited data for 4-pyrimidinamines are presented as well. “% Inh” indicates the percentage of control cells surviving after 24 hours, and represents the neuroprotective effect of the compounds screened at 1 micromolar concentration. IC50 relate to data from dose response experiments. […] ND refers to compounds not tested in dose-response experiments. […]

| SMILES | IC50 (Mus musculus, Neuron) [nM] | IC50 [nM] | % neuroprotection (cell survival relative to control) [%] |
| --- | --- | --- | --- |
| COc1cc(Nc2cccc(-c3ccc(Cl)cc3)n2)cc(OC)c1OC [Cmpd 141] |  |  | 76 |
| COc1cc(Nc2cccc(-c3cccc(N(C)C)c3)n2)cc(OC)c1OC [Cmpd 113] |  | 540 | 91 |
| FC(F)(F)c1cc(-c2ccc(Nc3ccc(N4CCOCC4)cc3)nc2)cc(C(F)(F)F)c1 [Cmpd 21, 2-pyridinamine, 5-[3,5-bis(trifluoromethyl)phenyl]-N-[4-(4-morpholinyl)phenyl]-] | 210 |  | 95 |
| c1ccc(Oc2ccc(Nc3cccc(-c4ccc5c(c4)OCO5)n3)cc2)cc1 [Cmpd 140] |  |  | 79 |
| FC(F)(F)Oc1ccc(-c2ccc(Nc3ccc(N4CCOCC4)cc3)nc2)cc1 [Cmpd 17] |  |  | 74 |
| COc1ccc(Nc2cccc(-c3ccc4ccccc4c3)n2)cc1 [Cmpd 97] |  |  | 71 |
| COc1cc(Nc2cccc(-c3cc(C(F)(F)F)cc(C(F)(F)F)c3)n2)cc(OC)c1OC [Cmpd 137] |  | 590 | 82 |
| COc1cc(Nc2cccc(-c3ccc(O)cc3)n2)cc(OC)c1OC [Cmpd 117] |  |  | 78 |
| CCn1c2ccccc2c2cc(Nc3cccc(-c4ccc5c(c4)OCO5)n3)ccc21 [Cmpd 139] |  |  | 72 |
| c1ccc2cc(-c3ccc(Nc4ccc5c(c4)OCCO5)nc3)ccc2c1 [Cmpd 81] |  | 470 | 107 |
| COc1ccccc1-c1ccc(Nc2cc(OC)c(OC)c(OC)c2)nc1 [Cmpd 71] |  |  | 77 |
| COc1ccc(Nc2ccc(C=Cc3ccccc3)cn2)c(C)c1 [Cmpd 90] |  |  | 73 |
| COc1ncc(-c2cccc(Nc3cc(OC)c(OC)c(OC)c3)n2)c(OC)n1 [Cmpd 107] |  |  | 71 |
| CCOc1cccc(-c2cccc(Nc3cc(OC)c(OC)c(OC)c3)n2)c1 [Cmpd 114, 2-pyridinamine, 6-(3-ethoxyphenyl)-N-(3,4,5-trimethoxyphenyl)-] | 140 |  | 96 |
| CCn1c2ccccc2c2cc(Nc3cccc(-c4ccco4)n3)ccc21 [Cmpd 132] |  | > 1000 | 105 |
| COc1cc(Nc2ccc(-c3cccc(N(C)C)c3)cn2)cc(OC)c1OC [Cmpd 74] |  |  | 95 |
| c1ccc2cc(-c3ccc(Nc4ccc(N5CCOCC5)cc4)nc3)ccc2c1 [Cmpd 25, 2-pyridinamine, N-[4-(4-morpholinyl)phenyl]-5-(2-naphthyl)-] | 84 |  | 100 |
| CCCCCOc1ccc(Nc2ccc(-c3cccnc3)cn2)cc1 [Cmpd 37] |  |  | 84 |
| COc1ccc(Nc2cccc(-c3ccccc3Oc3ccccc3)n2)cc1 [Cmpd 101] |  |  | 78 |
| CCn1c2ccccc2c2cc(Nc3cccc(-c4ccc(OC)c(OC)c4)n3)ccc21 [Cmpd 129] |  | 340 | 92 |
| c1ccc2sc(-c3ccc(Nc4ccc(N5CCOCC5)cc4)nc3)cc2c1 [Cmpd 22, 2-pyridinamine, 5-benzo[b]thien-2-yl-N-[4-(4-morpholinyl)phenyl]-] | 90 |  | 98 |
| COc1ccc(Nc2cccc(-c3ccc(CNC(=O)OC(C)(C)C)cc3)n2)cc1 [Cmpd 102] | 940 |  | 103 |
| CCOc1cccc(-c2ccc(Nc3cc(OC)c(OC)c(OC)c3)nc2)c1 [Cmpd 12, 2-pyridinamine, 5-(3-ethoxyphenyl)-N-(3,4,5-trimethoxyphenyl)-] | 47 |  | 87 |
| FC(F)(F)Oc1ccc(-c2ccc(Nc3ccc4c(c3)OCCO4)nc2)cc1 [Cmpd 4] |  | 380 | 86 |
| COc1cc(Nc2cccc(-c3ccc(F)c(Cl)c3)n2)cc(OC)c1OC [Cmpd 142] |  |  | 94 |
| Oc1ccc(-c2ccc(Nc3ccc4c(c3)OCCO4)nc2)cc1 [Cmpd 70] |  |  | 93 |
| COc1ccc(Nc2cccc(-c3ccc(Cl)cc3)n2)cc1 [Cmpd 103] |  |  | 75 |
| COc1ccc(Nc2ccc(-c3ccccc3)cn2)cc1 [Cmpd 82] |  |  | 72 |
| COc1ccccc1-c1ccc(Nc2ccc(N3CCOCC3)cc2)nc1 [Cmpd 32] |  | > 1000 | 100 |

The next lines start with results.

| IC50 (Mus musculus, Neuron) [nM] | IC50 [nM] | SMILES | % neuroprotection (cell survival relative to control) [%] |
| --- | --- | --- | --- |
| 230 |  | COc1ccc(-c2cccc(Nc3cc(OC)c(OC)c(OC)c3)n2)cc1OC [Cmpd 124, 2-pyridinamine, 6-(3,4-dimethoxyphenyl)-N-(3,4,5-trimethoxyphenyl)-] | 86 |
|  | > 1000 | FC(F)(F)Oc1cccc(-c2ccc(Nc3ccc(N4CCOCC4)cc3)nc2)c1 [Cmpd 33] | 89 |
|  | 470 | c1ccc(-c2ccc(-c3ccc(Nc4ccc(N5CCOCC5)cc4)nc3)cc2)cc1 [Cmpd 78] | 109 |
|  | > 1000 | Cc1ccc(-c2ccc(Nc3ccc4c(c3)OCCO4)nc2)cc1C [Cmpd 85] | 86 |
| 220 |  | CCCCCOc1ccc(Nc2ccc(-c3ccc(N4CCOCC4)cc3)cn2)cc1 [Cmpd 6, 2-pyridinamine, 5-[4-(4-morpholinyl)phenyl]-N-[4-(pentyloxy)phenyl]-] | 83 |
| 650 |  | COc1ccc(Nc2cccc(-c3ccccc3)n2)cc1 [Cmpd 123] | 90 |
|  | > 1000 | Cc1ccc(-c2ccc(Nc3cccc(N(C)C)c3)nc2)cc1C [Cmpd 87] | 84 |
| 210 |  | COc1cc(Nc2cccc(-c3ccc4ccccc4c3)n2)cc(OC)c1OC [Cmpd 135, 2-pyridinamine, 6-(2-naphthyl)-N-(3,4,5-trimethoxyphenyl)-] | 86 |
| 260 |  | CCCCCOc1ccc(Nc2ccc(-c3ccc4c(c3)OCO4)cn2)cc1 [Cmpd 13, 2-pyridinamine, 5-(1,3-benzodioxol-5-yl)-N-[4-(pentyloxy)phenyl]-] | 98 |
|  | 1080 | Oc1ccc(-c2ccc(Nc3ccc(N4CCOCC4)cc3)nc2)cc1 [Cmpd 1] | 84 |
|  | 870 | COc1ccccc1-c1ccc(Nc2ccc3c(c2)OCCO3)nc1 [Cmpd 11] | 83 |
|  | 920 | c1ccc2oc(-c3ccc(Nc4ccc(N5CCOCC5)cc4)nc3)cc2c1 [Cmpd 23] | 96 |
| 220 |  | CCCCCOc1ccc(Nc2ccc(-c3ccccc3OC)cn2)cc1 [Cmpd 14, 2-pyridinamine, 5-(2-methoxyphenyl)-N-[4-(pentyloxy)phenyl]-] | 90 |
|  | 490 | COc1cc(Nc2ccc(-c3ccc(C)c(C)c3)cn2)cc(OC)c1OC [Cmpd 84] | 85 |
|  | > 1000 | Clc1cccc(-c2ccc(Nc3ccc(N4CCOCC4)cc3)nc2)c1Cl [Cmpd 26] | 107 |
|  | 400 | COc1ccc(Nc2cccc(-c3cccc(N(C)C)c3)n2)cc1 [Cmpd 105] | 98 |
|  | > 1000 | c1ccc(Oc2ccccc2-c2ccc(Nc3ccc(N4CCOCC4)cc3)nc2)cc1 [Cmpd 28] | 83 |
|  | 460 | COc1ccc(-c2ccc(Nc3ccc(N4CCOCC4)cc3)nc2)cc1OC [Cmpd 79] | 110 |
|  | > 1000 | COc1ccc(Nc2ccc(-c3ccccc3OC)cn2)cc1 [Cmpd 35] | 82 |
| 200 |  | COc1ccc(Nc2ccc(-c3ccc(N(C)C)cc3)cn2)cc1 [Cmpd 8, 2-pyridinamine, 5-[4-(dimethylamino)phenyl]-N-(4-methoxyphenyl)-] | 83 |
|  | 280 | COc1ccc(Nc2cccc(C=Cc3ccccc3)n2)c(C)c1OC [Cmpd 145] | 96 |
|  | 320 | COc1cc(Nc2cccc(-c3ccc(Cl)c(Cl)c3)n2)cc(OC)c1OC [Cmpd 146] | 99 |
| 190 |  | COc1cc(C)c(Nc2cccc(-c3ccc(C)c(C)c3)n2)cc1OC [Cmpd 127, 2-pyridinamine, N-(4,5-dimethoxy-2-methylphenyl)-6-(3,4-dimethylphenyl)] | 86 |
| 230 |  | COc1cc(Nc2cccc(-c3ccccc3Oc3ccccc3)n2)cc(OC)c1OC [Cmpd 138, 2-pyridinamine, 6-(2-phenoxyphenyl)-N-(3,4,5-trimethoxyphenyl)-] | 90 |
|  | 1760 | COc1cc(-c2ccc(Nc3ccc(N4CCOCC4)cc3)nc2)cc(OC)c1OC [Cmpd 24] | 94 |
|  | > 1000 | Fc1ccc(-c2ccc(Nc3ccc(N4CCOCC4)cc3)nc2)cc1Cl [Cmpd 31] | 83 |
